Measured values published in patent US20090162286A1, “Phosphodiesterase 10 Inhibition as Treatment for Obesity-Related and Metabolic Syndrome-Related Conditions” (Pfizer Inc., priority 2004, published 2009).

Key:
[1] = Obesity Food Intake Model - Fasted-Induced Feeding Assay; type: in vivo, rat; conditions: fasted male CD rats; for effect on food intake (fasting-induced refeeding): 10 mg/kg, given 30 minutes prior to return of food, vs vehicle-treated control; for fasting-induced refeeding, dose dependence: Compound IIA 0.1, 1, 10 mg/kg, Compound IIIA 1, 3, 10, 32 mg/kg, comparator rimonabant 3 mg/kg
Protocol: PDE10 inhibitors were also tested for efficacy in reducing the acute re-feeding response following food withdrawal. Male CD rats were fasted overnight. Rats were administered a PDE10 inhibitor (Compound IIA and IIIA in separate tests) 30 minutes prior to the return of food. Food consumption was monitored and weighed at predetermined time points and the effect of PDE10 inhibitors were compared to vehicle-treated control rats.
Compound IIA, Compound IIIA and rimonabant were tested in the fasted-induced feeding assay described above. Compound IIA was tested at 10 mg/kg, 1 mg/kg and 0.1 mg/kg; Compound IIIA was tested at 32 mg/kg, 10 mg/kg, 3 mg/kg and 1 mg/kg; and rimonabant was tested at 3 mg/kg. Both Compound IIA and Compound IIIA were efficacious at 10 mg/kg.

[2] = Body weight and food intake in diet-induced obese (DIO) mice; type: in vivo, mouse; conditions: 15 mg/kg twice daily po
Protocol: Mice were individually housed and divided into two groups: a group of control mice which remained on Purina 5001 chow; and another group which was switched to a diet composed of 45 kcal % fat (D12331 Rodent Diet, Research Diets, Inc., New Brunswick, N.J.) for the duration of the 6 week study. Food intake was measured on a 24-hour, 5 days/week cycle (Monday-Friday). Body weight was determined on Day 0 and thereafter at the same time that food intake was measured. For testing the effects of a PDE10 inhibitor on body weight and oxygen consumption, a mouse model of diet-induced obesity (DIO) was used. Obesity was induced in the mice by maintaining them on a 45% fat diet for more than 14 weeks. DIO mice were treated with Compound IVA at a dose of 15 mg/kg, administered twice daily (p.o.) for 14 days. Control mice were administered a vehicle of 0.5% methylcellulose. Measurements were made as previously described. DIO mice were treated with Compound IVA at a dose of 15 mg/kg administered twice daily (po). Control mice were administered the vehicle, 0.5% methylcellulose. […] Oxygen consumption was determined in the Compound IV and vehicle treated mice at the end of the study.

[3] = Oxygen consumption in diet-induced obese (DIO) mice; type: in vivo, mouse; conditions: 15 mg/kg twice daily po, at the end of the study, vs vehicle
Protocol: Following determination of body composition, energy expenditure and oxygen consumption were determined using an Oxymax system (Columbus Instruments, Columbus, Ohio). Mice were housed under standard laboratory conditions and maintained on the experimental diet. Mice were acclimated to sealed chambers (8″×4″×5.5″) of the calorimeter (one mouse per chamber). The chambers were placed in activity monitors. The calorimeter was calibrated before each use, airflow was adjusted to 1.6 liters/min, and the system setting and sampling times were set to 60 seconds and 15 seconds, respectively. Oxygen consumption, carbon dioxide production, and ambulatory activity were measured every 10 minutes for a period of 4 hours. For testing the effects of a PDE10 inhibitor on body weight and oxygen consumption, a mouse model of diet-induced obesity (DIO) was used. Obesity was induced in the mice by maintaining them on a 45% fat diet for more than 14 weeks. DIO mice were treated with Compound IVA at a dose of 15 mg/kg, administered twice daily (p.o.) for 14 days. Control mice were administered a vehicle of 0.5% methylcellulose. Measurements were made as previously described. DIO mice were treated with Compound IVA at a dose of 15 mg/kg administered twice daily (po). […] Oxygen consumption was determined in the Compound IV and vehicle treated mice at the end of the study.

| SMILES | effect on food intake (fasting-induced refeeding) [1] | fasting-induced refeeding, dose dependence [1] | body weight change ([2]; 14 days, vs vehicle 0.5% methylcellulose) | onset of weight loss ([2]; apparent on the 4th day) | food intake ([2]; vs vehicle 0.5% methylcellulose) | oxygen consumption [3] |
| --- | --- | --- | --- | --- | --- | --- |
| COc1cc2ncnc(N3CC[C@@H](Oc4cnc5ccccc5n4)C3)c2cc1OC (stereo in doubt) [Compound IIA, 6,7-Dimethoxy-4-[3-(quinoxalin-2-yloxy)-pyrrolidin-1-yl]-quinazoline] | efficacious | reduce fasting-induced refeeding in the rats in a dose dependent fashion | – | – | – | – |
| COc1cc2nc(N3CCNCC3)nc(-c3ccccc3F)c2cc1OC [Compound IIIA, 4-(2-Fluorophenyl)-6,7-dimethoxy-2-piperazin-1-yl-quinazoline] | efficacious | reduce fasting-induced refeeding in the rats in a dose dependent fashion | – | – | – | – |
| c1ccc2nc(COc3ccc(-c4[nH]ncc4-c4ccncc4)cc3)ccc2c1 [Compound IVA, 2-[4-(4-Pyridin-4-yl-2H-pyrazol-3-yl)-phenoxymethyl]-quinoline] | – | – | led to weight loss | after three days treatment | small reduction in food intake | slight non-significant increase in oxygen consumption |
